One may read the GI50 as the concentration that inhibits growth by half. As usually defined, the TGI is the concentration giving total growth inhibition. Low values mean greater sensitivity of the cells, high ones lower sensitivity of the cells.

From PubChem BioAssay (NCI) come the findings set out here.

Structures are written as SMILES.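 Growth conditions: 96-well plates. Treatment: test compound, 48 hours, 5 concentrations. Analysis: linear interpolation between bracketing concentrations; unreached endpoints set to highest concentration. At the GI50, growth is halved. At the TGI there is no net growth.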

Some test systems named below: OVCAR-8 ovarian; OVCAR-4 ovarian; UO-31 renal; T-47D breast; UACC-62 melanoma; SK-MEL-2 melanoma; SF-295 CNS; LOX IMVI melanoma; SF-539 CNS; DU-145 prostate.
Common to all, as to experiment: DTP human tumour cell line panel, 48 h

`CCCCCCCCCCCCCC[P+](CCCCCC)(CCCCCC)CCCCCC`: the GI50 in the assay with OVCAR-8 ovarian was 0.0856 µM; in the assay on OVCAR-4 ovarian, 0.126 µM; in the assay on UO-31 renal, 0.29 µM; in the assay on T-47D breast, 0.0501 µM; in the assay with UACC-62 melanoma, 0.0422 µM; in the assay with SK-MEL-2 melanoma, 0.0266 µM. In addition, the GI50 was 0.0783 µM with SF-295 CNS, 0.0583 µM with LOX IMVI melanoma, 0.202 µM in the assay with SF-539 CNS and 0.0857 µM with DU-145 prostate. The TGI with OVCAR-8 ovarian was 1.78 µM; in the assay on UACC-62 melanoma, 1.9 µM; in the assay on SK-MEL-2 melanoma, more than 100 µM; in the assay on SF-295 CNS, 0.432 µM; in the assay on LOX IMVI melanoma, 0.497 µM; in the assay with SF-539 CNS, 1.72 µM. The molecule further yielded a TGI in the assay with DU-145 prostate of 1.68 µM.
On to `Cc1[nH]c(C(=O)Nc2ccc(C(=O)N3CCNCC3)cc2OC(C)C)c(Cl)c1Cl`, for which the GI50 is 2.25 µM with OVCAR-8 ovarian; 3.57 µM in the assay with OVCAR-4 ovarian; 1.44 µM with UO-31 renal; 1.91 µM in the assay with T-47D breast; 1.8 µM with UACC-62 melanoma; 1.97 µM in the assay with SK-MEL-2 melanoma. Moreover, the GI50 in the assay with SF-295 CNS was 1.89 µM; with LOX IMVI melanoma, 1.77 µM; in the assay on SF-539 CNS, 1.73 µM; in the assay with DU-145 prostate it was 2.06 µM. Moreover, the TGI was found to be 5.32 µM in the assay with OVCAR-8 ovarian; 11.8 µM with OVCAR-4 ovarian; 2.85 µM with UO-31 renal; 4.62 µM in the assay with T-47D breast; 3.38 µM in the assay with UACC-62 melanoma; 3.79 µM with SK-MEL-2 melanoma. The TGI with SF-295 CNS was 3.68 µM; in the assay with LOX IMVI melanoma, 3.25 µM; with SF-539 CNS it was 3.19 µM; in the assay on DU-145 prostate it was 4.06 µM.
Regarding `C[C@@H]1COCCN1c1nc(-c2cnc(N)cc2C(F)F)nc(N2[C@H](C)COC[C@@H]2C)n1`, the GI50 is 0.367 µM in the assay with OVCAR-8 ovarian; 0.278 µM in the assay on OVCAR-4 ovarian; 0.0575 µM in the assay on UO-31 renal; 0.0422 µM with T-47D breast; 0.116 µM with UACC-62 melanoma; 0.382 µM in the assay on SK-MEL-2 melanoma. Moreover, the GI50 in the assay on SF-295 CNS was 0.116 µM; in the assay with LOX IMVI melanoma, 0.206 µM; with SF-539 CNS, 0.264 µM; with DU-145 prostate, 0.336 µM. Also, the TGI in the assay on OVCAR-8 ovarian was found to be 21.4 µM; with OVCAR-4 ovarian it was 11.9 µM; with UO-31 renal, 11 µM; in the assay with T-47D breast, 0.644 µM; in the assay on UACC-62 melanoma, 2.74 µM; in the assay on SK-MEL-2 melanoma it was 7.62 µM. Further, the TGI with SF-295 CNS was determined as 1.69 µM; with LOX IMVI melanoma it was 11.3 µM; in the assay on SF-539 CNS, 6.66 µM; in the assay with DU-145 prostate, 14.5 µM.
Take `CN(C)C(=S)NN=C(c1ccccn1)c1ccccn1`: the GI50 in the assay on OVCAR-8 ovarian is 0.0361 µM; with OVCAR-4 ovarian it was less than 0.01 µM; with UO-31 renal, less than 0.0184 µM; in the assay on UACC-62 melanoma, 0.077 µM; with SK-MEL-2 melanoma it was 0.106 µM; in the assay with SF-295 CNS, 0.0421 µM. Also, the GI50 was less than 0.01 µM in the assay with LOX IMVI melanoma, 0.0425 µM in the assay on SF-539 CNS and 0.232 µM with DU-145 prostate. In addition, the TGI in the assay with OVCAR-8 ovarian is 27 µM; in the assay on OVCAR-4 ovarian, more than 83.1 µM; in the assay with UO-31 renal, 14.1 µM; with T-47D breast, more than 44.9 µM; in the assay on UACC-62 melanoma, 0.739 µM; in the assay on SK-MEL-2 melanoma, 4.2 µM. Moreover, the TGI in the assay with SF-295 CNS was 18.6 µM; in the assay with LOX IMVI melanoma, 11.5 µM; with SF-539 CNS, 4.64 µM; with DU-145 prostate, more than 33.7 µM.
Regarding `CN(C)c1ccc(C(=O)c2ccc(N(C)C)c(N)c2)cc1N`, the GI50 is 8.99 µM in the assay with OVCAR-8 ovarian; 6.26 µM in the assay on OVCAR-4 ovarian; 4.02 µM with UO-31 renal; 4.3 µM in the assay on T-47D breast; 2.32 µM in the assay with UACC-62 melanoma; 4.3 µM in the assay with SK-MEL-2 melanoma. Besides, the GI50 is 2.03 µM with SF-295 CNS, 7.75 µM in the assay with LOX IMVI melanoma, 3.92 µM in the assay on SF-539 CNS and 5.32 µM with DU-145 prostate. For the same molecule, the TGI in the assay on OVCAR-8 ovarian is more than 100 µM; in the assay on OVCAR-4 ovarian, more than 100 µM; in the assay on UO-31 renal, more than 67.7 µM; in the assay with T-47D breast it was more than 46.1 µM; in the assay on UACC-62 melanoma, more than 64.5 µM; in the assay with SK-MEL-2 melanoma it was more than 100 µM. Further, the TGI with SF-295 CNS is 33.4 µM; in the assay with LOX IMVI melanoma, more than 100 µM; in the assay with SF-539 CNS, 26.5 µM; in the assay on DU-145 prostate, 28.1 µM.
Turning to `Nc1nc2c(c3ncccc13)C(c1ccc(Cl)c(Cl)c1)Cc1ncccc1-2` (stereo unspecified), the GI50 with OVCAR-8 ovarian is 4.24 µM; with OVCAR-4 ovarian, 5.76 µM; in the assay with UO-31 renal, 4.99 µM; in the assay with T-47D breast it was 2.39 µM; in the assay with UACC-62 melanoma, 2.28 µM; with SK-MEL-2 melanoma, 3.79 µM. Besides, the GI50 is 2.82 µM in the assay on SF-295 CNS, 4.4 µM with LOX IMVI melanoma, 2.15 µM with SF-539 CNS and 3.6 µM in the assay on DU-145 prostate. Moreover, the TGI was determined as 36.5 µM with OVCAR-8 ovarian; 18.6 µM in the assay on OVCAR-4 ovarian; 22 µM with UO-31 renal; 13.4 µM in the assay on T-47D breast; 12.5 µM in the assay on UACC-62 melanoma; 15.8 µM in the assay on SK-MEL-2 melanoma. Also, the TGI was 7.94 µM in the assay on SF-295 CNS, 16.2 µM with LOX IMVI melanoma, 5.35 µM in the assay on SF-539 CNS and 12.5 µM in the assay with DU-145 prostate.
For `Cn1c(=O)c(Oc2cccc(F)c2)cc2cnc(NC3CCOCC3)nc21`, the GI50 in the assay on OVCAR-8 ovarian was more than 25 µM; in the assay with OVCAR-4 ovarian, more than 22.6 µM; in the assay on UO-31 renal, more than 8.3 µM; with T-47D breast it was more than 25 µM; with UACC-62 melanoma it was more than 25 µM; in the assay on SK-MEL-2 melanoma, more than 25 µM. The GI50 in the assay on SF-295 CNS, in the assay on LOX IMVI melanoma, in the assay with SF-539 CNS and in the assay with DU-145 prostate was more than 25 µM in each case. Further, the TGI with OVCAR-8 ovarian was more than 25 µM; with OVCAR-4 ovarian, more than 25 µM; in the assay with UO-31 renal it was more than 13 µM; with T-47D breast, more than 25 µM; in the assay with UACC-62 melanoma, more than 25 µM; in the assay on SK-MEL-2 melanoma, more than 25 µM. Also, the TGI in the assay on SF-295 CNS, in the assay on LOX IMVI melanoma, with SF-539 CNS and in the assay with DU-145 prostate was more than 25 µM throughout.
